Measured values as given in patent publication US9669005B2, “Use of naringenin in preparing drugs for preventing and/or treatment abdominal aortic aneurysm” (priority 2013, dated 2017).

Tests used:
Format in all cases: in vivo
[1] = system: abdominal aortic aneurysms in angiotensin II induced ApoE-/- mice; assay: Abdominal aortic aneurysm model in ApoE-/- mice induced by angiotensin II submerging pump, naringenin gavage; details: AngII ApoE-/- mice
Experimental: Firstly, 16 weeks of male ApoE^−/− mice were randomly divided into two groups, control group (n=16) and naringenin group (n=15), respectively. And then they were anesthetized by 0.1% pentobarbital sodium, and mini pumps (model 2004, Alzet, Cupertino, Calif.) were subcutaneously submerged; angiotensin II (Sigma-Aldrich, St. Louis, Mo.) dissolved with normal saline was added to the pump, such that drugs can be continuously administrated for 4 weeks at a dosage of 1000 ng/kg/min. From the first day after surgery, gavage was daily performed to mice at constant time points, water gavage in control group, and naringenin gavage (50 mg/kg) in naringenin group. Materials were removed 28 days after gavage. Blood pressure of the mice was measured by tail cuff method with BP-89A sphygmomanometer (Beijing Softron Biotechnology Co., Ltd.), and the mice were weighted. Blood was drawn in inner canthus of the mice, and after centrifuged for 10 minutes at 6000 rotations, supernatant was removed and the blood fat levels of the mice were measured. […] Aortas of mice were fixed and separated. AngII group was the control group of angiotensin II submerging pump and water gavage. AngII+NGN group was the group of angiotensin II submerging pump and naringenin gavage. Four blood vessels were randomly selected in each group for photographing. The results were shown in FIG. 5A, the former two blood vessels in AngII group have significant bulges at suprarenal site, exceeding 50% of the diameters of the blood vessels at adjacent site, and arterial aneurysms are formed. […] Next, the statistics of the onset of abdominal aortic aneurysms in all the mice was performed. In the control group of angiotensin II submerging pump and water gavage, only one of 16 mice died from the fracture of aortic dissection within the first 7 days after submerging pump, another one died from the fracture of abdominal aortic aneurysms 1 week after submerging pump, abdominal aortic aneurysms were generated in 6 of the remaining 14 mice at 28th day after submerging pump. Therefore, in control group of angiotensin II submerging pump, aortic aneurysms were formed in 8 of 16 mice, that is, the morbidity of aortic aneurysms was 50%. And in the group of angiotensin II submerging pump and naringenin gavage, 1 of 15 mice died from the fracture of aortic aneurysms, only 1 of the remaining mice suffered from abdominal aortic aneurysms at 28 day after submerging pump. Therefore, in the group of angiotensin II submerging pump and naringenin gavage, only two of 15 mice suffered from aortic aneurysms, that is, the morbidity of aortic aneurysms was 13.3%. […] After removing materials from mice, aortas were perfused with 4% paraformaldehyde and fixed, the suprarenal aorta from diaphragm muscle to renal artery branch on the right side was equally divided into two segments, which were put into liquid nitrogen to freeze for 30 s after embedded with OCT. Serial sections were performed, the thickness of each section was 6 μm, with the spacing of 300 μm, and continuous 16 sections were performed on each mouse. H.E. staining was used to determine the diameters of abdominal aortas of mice, the diameters were measured and the maximum diameter was selected therefrom. The maximum diameter was compared with the diameter of adjacent site, and if the maximum diameter exceeds 50% of diameter of the adjacent site, it can be considered that the mouse suffered from an abdominal aortic aneurysm. […] We used Gomori staining to determine the fracture situation of the elastic lamina of abdominal aortas of mice, and statistics was performed. The results were shown in FIG. 6B, the fracture of the elastic lamina of abdominal aortas of mice decreases after naringenin gavage, and the mice detected in each group are all 6 mice. The data in Figure are an average value ±standard deviation.

[2] = system: abdominal aortic aneurysms in C57BL/6J mice with CaPO4 daubed infrarenal arteries; assay: Abdominal aortic aneurysm model induced by CaPO4 daubed infrarenal aortas, naringenin or doxycycline gavage; details: CaPO4 daubed C57BL/6 mice, daily gavage 7 days
Experimental: 12-week old of male C57BL/6 mice were anesthetized via intraperitoneal injection of 0.1% pentobarbital sodium (injection according to body weight, […]). Infrarenal abdominal aortas were separated, and the separated infrarenal abdominal aortas were packaged by gauze (1 cm in width×3 cm in length) soaked in 0.5 M CaCl2 solution. After 10 minutes, the gauze was removed, gauze soaked in PBS was instead used to package the blood vessel for 5 min. CaCl2+and PO4^−3 in PBS can form CaPO4 crystal, that is, corresponding to daubing CaPO4 to the blood vessel. After packaging the blood vessel with gauze soaked in NaCl for 10 minutes, gauze soaked in PBS is instead used for 5 min, serving as NaCl daubed control group.
Gavage was started at the first day after surgery, and water, naringenin (50 mg/kg) (Sigma-Aldrich, St. Louis, Mo.) or doxycycline (100 mg/kg) (Sigma-Aldrich, St. Louis, Mo.) gavage were given on mice daily. Materials were removed from the mice 7 days after gavage. Mice were weighed, and blood was drawn from inner canthus by capillary, after centrifuged for 10 minutes at 6000 rotations, the supernatant was removed and blood fat was measured (kit is purchased from BIOSINO company). Then perfusion and washing were performed on mice using PBS. Blood vessels were separated, and four blood vessels were randomly chosen for each group for photographing. The results were shown in FIG. 1, wherein, NaCl was the group of daubing NaCl (n=11), CaPO4 was the group of daubing CaPO4 plus water feed (n=12), CaPO4+NGN was the group of daubing CaPO4 μlus naringenin gavage (n=11), and CaPO4+Dox was the group of daubing CaPO4 μlus doxycycline gavage (n=11).
The blood vessels were sliced, and the change of the diameters in infrarenal abdominal aortas of mice were identified by H.E. staining. […] The data in FIG. 2A were an average value±standard deviation.
The fracture degree of elastic lamina is also an index showing the severity of abdominal aortic aneurysms. The degradation of elastic lamina is divided into four grades. The first grade means that the degradation of elastic lamina is less than 25%, with the second grade of 25%-50%, the third grade of 50%-75%, and the fourth grade means the fracture is more than 75%. We used Gomori staining to identify the fracture situation of elastic lamina of infrarenal abdominal aortas of mice. […] The data in FIG. 2B were an average value±standard deviation.

[3] = system: formed arterial aneurysms in CaPO4 daubed C57 mice; assay: Formed abdominal aortic aneurysms, CaPO4 model, naringenin gavage from 7 days after daubing
Experimental: In CaPO4 model, we daubed CaPO4 at infrarenal abdominal aortas in 12-week old of male C57 mice (totally 36 mice), and arterial aneurysms were formed 7 days later. Next, the 36 mice were randomly divided into 2 groups: one group was given naringenin (50 mg/kg/day) gavage, and another group was given equal water gavage. Gavage was performed for 2 weeks (8 mice for each group) and 4 weeks (10 mice for each group), respectively.

O=C1C[C@@H](c2ccc(O)cc2)Oc2cc(O)cc(O)c21 [naringenin]
morbidity of aortic aneurysms ([1]; naringenin 50 mg/kg gavage 28 days, 15 mice, control 50%): 13.3%
formation of abdominal aortic aneurysms (vascular photos) ([1]; naringenin 50 mg/kg gavage 28 days, FIG. 5A): reduce the formation of abdominal aortic aneurysms
maximum diameter of suprarenal abdominal aortas (H.E. staining) ([1]; naringenin gavage, 11 mice per group, FIG. 6A): significantly decreases
fracture of the elastic lamina of abdominal aortas (Gomori staining) ([1]; naringenin gavage, FIG. 6B): decreases
Dissection (number of mice) ([1]; naringenin gavage, of 15 mice): 0
Fracture (number of mice) ([1]; naringenin gavage, of 15 mice): 1
Without aneurysm (number of mice) ([1]; naringenin gavage, of 15 mice): 13
aneurysm (number of mice) ([1]; naringenin gavage, of 15 mice, 28th day): 1
fracture of elastic lamina of infrarenal abdominal aortas (Gomori staining) ([2]; FIG. 2B): reverse the effect of CaPO4
diameters of infrarenal abdominal aortas (H.E. staining) ([2]; naringenin 50 mg/kg, doxycycline 100 mg/kg, average ± SD, CaPO4 + water 1.40±0.19, NaCl 0.77±0.06): 1.03±0.18 mm
incidence rate and degree of bulge of blood vessels at infrarenal site ([2]; naringenin 50 mg/kg, doxycycline 100 mg/kg, vascular photos FIG. 1): reduce the incidence rate and degree of bulge
average diameter of infrarenal abdominal aortas (ex vivo) ([3]; aneurysms formed 7 days after CaPO4, naringenin 50 mg/kg/day gavage 2 weeks, control 1.488±0.42, P<0.05): 0.884±0.33 mm
average diameter of infrarenal abdominal aortas (ex vivo) ([3]; aneurysms formed 7 days after CaPO4, naringenin 50 mg/kg/day gavage 4 weeks, control 1.718±0.64, P<0.05): 0.9935±0.5 mm
